This is an account of results in patent publication US9399016B2, “Materials and complexes for the delivery of biologically-active materials to cells” (UCL BUSINESS PLC, priority 2006, dated 2016).

Series [1] is described as follows: Hydrolysis studies of PEG-acetal cleavable lipids. It is filed as physicochemical. As to conditions: pH at which hydrolysis was observed; 37° C., pH range 3 to 7; TLC, confirmed by mass spectrometry. As for the experimental part: Hydrolysis of the PEG-acetal lipids was investigated at 37° C. over a pH range of 3 to 7.
Acid hydrolysis of the compounds was monitored by TLC, and cleavage was then confirmed by mass spectrometry. An example of the TLC analysis method used for compound JBW389 is shown FIG. 4 with a control (the cleaved acetal product, the corresponding aldehyde) and the pH at which hydrolysis for all of the compounds prepared was observed is given in Table II.

In series [2] the test system is Neuro 2A, AJ3.1, bEND.3, 16HBE14o-, ΣCFTE29o- cells and primary PVSMCs. Put plainly: In vitro transfection, luciferase reporter, statements covering several or all cell types studied. In kind it is cell-based. As to conditions: for transfection efficiency, rank among PEG-acetal pH-sensitive lipids: all the cells, lipid/DOPE complexed to peptide 6 or E and pCI-Luc 2:4:1; for transfection efficiency of cleavable (RVRR) peptide compared with equivalent non-cleavable peptide control: Neuro 2A, bEND.3 and 16HBE14o- cells, stated for 'most' of the peptides, controls P1, P6, FMM12, PE, PY. The method, then: (§1) Cells were seeded into 96-well plates at 2.5×10^3 cells per well for bEND.3 cells and at 2×10^4 cells per well for all the other cells, then incubated overnight at 37° C. in complete growth medium. The following day, lipopolyplex (LPD) formulations were prepared essentially as described previously (Hart et al., 1998), by mixing the components in the following order: 50 μl of lipid (L) at 80 μg/ml in OptiMEM, 70 μl of peptide (P) at 110 μg/ml in OptiMEM and 50 μl of plasmid pCI-Luc (D) at 40 μg/ml in OptiMEM corresponding to a weight ratio of 2:4:1, respectively. All the complexes were mixed by pipetting briefly, kept for 1 h at room temperature and then diluted in OptiMEM to a final volume of 1.57 ml. Two hundred microliters of complexes corresponding at 0.25 μg of plasmid DNA were added to each culture well after removal of the complete growth medium. All the transfections were carried out in 6 wells each. A centrifugation (1500 rpm, during 5 minutes) could be performed to promote the complex sedimentation and cell contact. The cells were incubated with the complexes for 4 h at 37° C. before replacing with fresh media for 24 h, after which reporter gene expression was analysed by luciferase assay (Promega, Madison, Wis., USA). For bEND.3 cells, 5 mM sodium butyrate was added to the transfection medium and to the fresh media to achieve optimal expression levels.
(§2) Cells were washed once with PBS before the addition of 20 μl of 1× Reporter Lysis Buffer (Promega, Madison, Wis., USA) to the cells for 20 min at 4° C. before freezing at −80° C. for at least 30 min, followed by thawing at room temperature. Then the luciferase activity was measured during 10 seconds using the Luciferase Assay System (Promega, Madison, Wis., USA) and a Lucy-1 Luminometer (Anthos Ltd., Salzburg, Austria). The amount of protein present in each transfection lysate was determined with the Bio-Rad (Hercules, Calif., USA) protein assay reagent by the manufacturer's instructions, adding 20 μl from the luciferase test to 180 μl of the reagent diluted 1 in 5 and incubating at room temperature for 10 min before comparing the OD590 to a range of BSA standards. In vitro luciferase activity was expressed as Relative Light Units (RLU) per milligram of protein (RLU/mg).
Background: Reporter assays use an easily measured gene product as a stand-in for the process of interest.

In a further series the test system is 16HBE14o- cells. Put plainly: In vitro transfection with LPD/LD complexes, luciferase reporter (pCI-Luc). It is filed as cell-based, human. As to conditions: complexed to peptide E, p<0.05. As for the experimental part: (§3) Cells were seeded into 96-well plates at 2.5×10^3 cells per well for bEND.3 cells and at 2×10^4 cells per well for all the other cells, then incubated overnight at 37° C. in complete growth medium. The following day, lipopolyplex (LPD) formulations were prepared essentially as described previously (Hart et al., 1998), by mixing the components in the following order: 50 μl of lipid (L) at 80 μg/ml in OptiMEM, 70 μl of peptide (P) at 110 μg/ml in OptiMEM and 50 μl of plasmid pCI-Luc (D) at 40 μg/ml in OptiMEM corresponding to a weight ratio of 2:4:1, respectively. […] The cells were incubated with the complexes for 4 h at 37° C. before replacing with fresh media for 24 h, after which reporter gene expression was analysed by luciferase assay (Promega, Madison, Wis., USA). […]
(§4) Cells were washed once with PBS before the addition of 20 μl of 1× Reporter Lysis Buffer (Promega, Madison, Wis., USA) to the cells for 20 min at 4° C. before freezing at −80° C. for at least 30 min, followed by thawing at room temperature. Then the luciferase activity was measured during 10 seconds using the Luciferase Assay System (Promega, Madison, Wis., USA) and a Lucy-1 Luminometer (Anthos Ltd., Salzburg, Austria). […] In vitro luciferase activity was expressed as Relative Light Units (RLU) per milligram of protein (RLU/mg).

In a further series the test system is ΣCFTE29o- cells. The series is described as above. It is filed as cell-based, human. As to conditions: complexed to peptide E, p<0.05. As for the experimental part:
as §3, §4

Series [3] has as its system primary porcine vascular smooth muscle cells (PVSMCs). The description is as above. As to conditions: complexed to peptide E, p<0.05. It is filed as cell-based. The method, then: as §3, §4
The subject of the next series is bEND.3 cells. The series is described as above. It is filed as cell-based, mouse. The conditions noted are these: complexed to peptide E, p<0.05. The method, then: as §1, with “For bEND.3 cells, 5 mM sodium butyrate was added to the transfection medium and to the fresh media to achieve optimal expression levels.” left out
as §2, with “In vitro luciferase activity was expressed as Relative Light Units (RLU) per milligram of protein (RLU/mg).” left out

A further series relates to Neuro 2A cells. The description is as above. It is filed as cell-based, mouse. The method, then: as §1, with “For bEND.3 cells, 5 mM sodium butyrate was added to the transfection medium and to the fresh media to achieve optimal expression levels.” left out
as §2, with “In vitro luciferase activity was expressed as Relative Light Units (RLU) per milligram of protein (RLU/mg).” left out

Series [4] deals with female A/J mice bearing a tumour (Neuro 2A). Put plainly: In vivo transfection, i.v., luciferase expression in tumours and organs. The conditions noted are these: peptide complexed to lipid ME42/DOPE and pCI-Luc, 24 hours, p>0.05. The arrangement: species or system mouse. As for the experimental part:
All animal procedures were approved and licensed by the Home Office and performed to the standards required by the UK Co-ordinating Committee on Cancer Research (UKCCCR) (Workman et al., British Journal of Cancer, 1998, 77, 1-10). Female A/J mice (Harlan Laboratories, U.K) of 8-12 weeks old were injected subcutaneously in the right posterior flank with 1.5×10^6 Neuro 2A cells. After 10±2 days, when tumors had reached approximately 8-12 mm in size, 100 μl of LPD complexes made in 5% glucose and containing 50 ug pCI-Luc or pAB 11 were injected into the tail vein. Experiments were carried out at least six times. Twenty-four hours after injection, mice were killed and tumours and organs were resected and stored at −80° C. Tissues were defrosted in ice, submersed in reporter gene assay lysis buffer (Roche, Germany), homogenized with an IKA homogenizer (IKA, Staufen, Germany) and centrifuged at 4600 rpm during 10 min at 4° C. The supernatant was got back and centrifuged at 13000 rpm during 10 min at 4° C. Luciferase activity in the tissue lysates was measured using a FLUOstar Optima (BMG Labtech, UK) during 30 seconds and was expressed as RLU per milligram of protein (RLU/mg). Two million RLU/30 sec correspond to 1 ng luciferase.

Where [5] appears, read: lipofectin:peptide:pCI-Luc 2:4:1.

Regarding `CCCCCCCC/C=C\CCCCCCCCOCC(C[N+](C)(C)CCCC(OCCOCCO)OCCOCCO)OCCCCCCCC/C=C\CCCCCCCC` (centres unmarked) [JBW389, N-(2,3-Bis((Z)-octadec-9-enyloxy)propyl)-4,4-bis(2-(2-hydroxyethoxy)ethoxy)-N,N-dimethylbutan-1-aminium chloride], the “Hydrolysis pH” value in series [1] is 5.5. Besides, the “transfection efficiency, rank among PEG-acetal pH-sensitive lipids” value in series [2] is listed as “the best lipids for transfection”. In addition, the “transfection efficiency relative to non-cleavable lipid JBW456” value is recorded as 6 times in the series on 16HBE14o- cells and 2 times with ΣCFTE29o- cells.

Regarding `CCCCCCCC/C=C\CCCCCCCCOCC(C[N+](C)(C)CCCCCCCC(OCCOCCO)OCCOCCO)OCCCCCCCC/C=C\CCCCCCCC` (centres unmarked) [JBW400, N-(2,3-bis((Z)-octadec-9-enyloxy)propyl)-8,8-bis(2-(2-hydroxyethoxy)ethoxy)-N,N-dimethyloctan-1-aminium chloride], the “transfection efficiency relative to non-cleavable lipid JBW456” value is recorded as 4 times in series [3] and 2 times with bEND.3 cells. Further, the “Hydrolysis pH” value in series [1] is 4.0. In addition, the “transfection efficiency, rank among PEG-acetal pH-sensitive lipids” value in series [2] is “the best lipids for transfection”.

Turning to `CCCCCCCC/C=C\CCCCCCCCOCC(C[N+](C)(C)CCCCCC(OCCOCCO)OCCOCCO)OCCCCCCCC/C=C\CCCCCCCC` (centres unmarked) [JBW411, N-(2,3-bis((Z)-octadec-9-enyloxy)propyl)-6,6-bis(2-(2-hydroxyethoxy)ethoxy)-N,N-dimethylhexan-1-aminium chloride], the “Hydrolysis pH” value in series [1] was determined as 3.5. Besides, the “transfection efficiency, rank among PEG-acetal pH-sensitive lipids” value in series [2] was “less efficient”.

Consider `CCCCCCCC/C=C\CCCCCCCCOCC(C[N+](C)(C)CCCCCC(OCCOCCOCCOCCO)OCCOCCOCCOCCO)OCCCCCCCC/C=C\CCCCCCCC` (centres unmarked) [JBW412], for which the “Hydrolysis pH” value in series [1] is 3.0. In addition, in series [2], the “transfection efficiency, rank among PEG-acetal pH-sensitive lipids” value is reported as “less efficient”.

As for `CCCCCCCC/C=C\CCCCCCCCOCC(C[N+](C)(C)CCCCCC(OCCOCCOC)OCCOCCOC)OCCCCCCCC/C=C\CCCCCCCC` (centres unmarked) [JBW413, N-(2,3-Bis((Z)-octadec-9-enyloxy)propyl)-6,6-bis(2-(2-methoxyethoxy)ethoxy)-N,N-dimethylhexan-1-aminium chloride], the “Hydrolysis pH” value in series [1] is on record as 5.0. The “transfection efficiency compared with non-cleavable lipid JBW456” value in the series on Neuro 2A cells (complexed to peptide E, p>0.05) is “as efficient as JBW456”. For the same compound, in series [2], the “transfection efficiency, rank among PEG-acetal pH-sensitive lipids” value is listed as “the best lipids for transfection”.

For the compound `CCCC/C=C\CCCCCCCCCCOCC(C[N+](C)(C)CCCCCC(OCCOCCO)OCCOCCO)OCCCCCCCCCC/C=C\CCCC` (centres unmarked) [JBW418, N-(2,3-Bis((Z)-hexadec-11-enyloxy)propyl)-6,6-bis(2-(2-hydroxyethoxy)ethoxy)-N,N-dimethylhexan-1-aminium chloride], the “Hydrolysis pH” value in series [1] turned out to be 3.0. For the same compound, the “transfection efficiency, rank among PEG-acetal pH-sensitive lipids” value in series [2] was “less efficient”.

As for (K)16RVRRGACRGDCLG [ME27], the “luciferase expression in tumour, by peptide” value in series [4] is reported as 105000 RLU/mg. The “transfection efficiency compared with non-cleavable peptide ME61” value is “as efficient as the non-cleavable control peptide ME61” in the series on Neuro 2A cells (setting [5]) and “significantly more efficient than ME61” in series [2] (lipofectin:peptide:pCI-Luc 2:4:1, other cell lines than Neuro 2A, p<0.05). For the same compound, the “transfection efficiency of cleavable (RVRR) peptide compared with equivalent non-cleavable peptide control” value in series [2] (setting [5]) is on record as “as or more efficient”. In addition, the “transfection efficiency, rank among cleavable peptides ME27, ME28, ME29” value in series [2] (lipofectin:peptide:pCI-Luc 2:4:1, each of Neuro 2A, AJ3.1, bEND.3, 16HBE14o-, ΣCFTE29o-, PVSMCs, p<0.05) is “significantly the best cleavable peptide”.

In the case of (K)16RVRRGACRGDMFGCA [ME68], the “transfection efficiency of cleavable (RVRR) peptide compared with equivalent non-cleavable peptide control” value in series [2] (setting [5]) is on record as “as or more efficient”.

Regarding (K)16RVRRGACRRETAWACG [FMM8], in series [2] (setting [5]), the “transfection efficiency of cleavable (RVRR) peptide compared with equivalent non-cleavable peptide control” value is listed as “as or more efficient”.

Regarding (K)16RVRRGACSERSMNFCG [ME69], the “transfection efficiency of cleavable (RVRR) peptide compared with equivalent non-cleavable peptide control” value in series [2] (setting [5]) is listed as “as or more efficient”.

Consider (K)16RVRRGACYGLPHKFCG [PCY], for which the “transfection efficiency of cleavable (RVRR) peptide compared with equivalent non-cleavable peptide control” value in series [2] (setting [5]) was “as or more efficient”.
